In patent US20140024839A1, “FULLERENE DERIVATIVE, AND METHOD OF PREPARING THE SAME” (RICOH COMPANY, LTD., priority 2012, published 2014):

Test: Solubility in o-dichlorobenzene (saturated solution, HPLC with standard curves)
Format: physicochemical
Conditions: saturated o-dichlorobenzene solution at 25° C., filtered 0.45 μm, HPLC 254 nm
Description: Solubilities of the fullerene derivatives having the formulae (1a) to (5a) of the present invention in Examples 1 to 5 and the fullero pyrrolidine in Application Examples 1 to 5 in o-dichlorobenzene were evaluated by the following method. A 0.1 mM o-dichlorobenzene solution and a 1.0 mM o-dichlorobenzene solution of each of the fullerene derivatives and the fullero pyrrolidine were prepared, and diluted fivefold with THF for HPLC. Ten (10) μL of the diluted solution was analyzed by a high-speed liquid chromatograph (LC-2010HT from Shimadzu Corp.; developing solvent: THF/ion-exchanged water=60/40; analysis time: 60 min; and detection wavelength: 254 nm) to prepare a chromatogram. Standard curves of the known concentrations (0.1 mM and 1.0 mM) were obtained therefrom. Next, a saturated o-dichlorobenzene solution of each of the fullerene derivatives and the fullero pyrrolidine were prepared at 25° C. After the saturated solution was filtered with a 0.45 μm filter, it was diluted hundredfold with THF for HPLC. Ten (10) μL of the diluted solution was analyzed by the same method mentioned above to prepare a chromatogram. A weight of the fullerene derivative dissolved in 1 mL of o-dichlorobenzene was determined as solubility using a peak area value of the chromatogram from the saturated solution and the standard curves.

SMILES | Weight of the fullerene derivative dissolved in 1 mL of o-dichlorobenzene [mg]
CCCCCCCCCCCCC1N(c2ccc(OC(=O)OC(C)(C)C)cc2)CC23C4=c5c6c7c8c9c%10c%11c%12c%13c%14c%15c%16c(c5c(c%15%12)c%106)C12C1C%162CC15c1c6c%10c%12c%15c%16c%17c%18c%19c%20c%21c%22c%23c%24c(c1c%12c(c%21%24)c%19%15)C5C3C%23C4C7C%22C8C%20C%18C9C%11C%17C%13C%16C%10C%14C62 (stereo not drawn) [formula (5a)] | 280
CCCCCCCCCC1N(c2ccc(OC(=O)OC(C)(C)C)cc2)CC23C4=c5c6c7c8c9c%10c%11c%12c%13c%14c%15c%16c(c5c(c%15%12)c%106)C12C1C%162CC15c1c6c%10c%12c%15c%16c%17c%18c%19c%20c%21c%22c%23c%24c(c1c%12c(c%21%24)c%19%15)C5C3C%23C4C7C%22C8C%20C%18C9C%11C%17C%13C%16C%10C%14C62 (stereo not drawn) [formula (4a)] | 159
CC(C)(C)OC(=O)Oc1ccc(N2CC34C5=c6c7c8c9c%10c%11c%12c%13c%14c%15c%16c%17c(c6c(c%16%13)c%117)C3(C2C(C)(C)C)C2C%173CC26c2c7c%11c%13c%16c2c2c%17c%18c%19c%20c%21c%22c%23c(c-%13c%21c%18%16)C(C%14C%23C%12C%10C%22C%20C9C9C8C5C(C%17C%199)C4C26)C%11C%15C73)cc1 (stereo not drawn) [formula (3a)] | 107
